Assay results reported in US10130693B2, “Peptides, combination of peptides and scaffolds for use in immunotherapeutic treatment of various cancers” (Immatics Biotechnologies GmbH, priority 2015, dated 2018).

Columns and labels:
HLA-A*24 = assay: MHC binding assay, UV-ligand exchange with beta2m ELISA (exchange yield), HLA-A*24; design: species or system human; settings: binding to HLA-A*24, UV-ligand exchange
Procedure, shortened: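 Peptide–MHC complexes formed by UV-ligand exchange: a UV-cleavable peptide is replaced by the test peptide, and only binders keep the complex stable. Exchange yield read by streptavidin-capture ELISA on reactions diluted 100-fold, detected with HRP anti-β2m (2 ug/ml, 1 h, 37° C) and TMB at 450 nm.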

CD8+ T cells = assay: In vitro immunogenicity: T-cell priming with aAPCs loaded with HLA-A*24 peptide/MHC and anti-CD28, multimer staining; format: cell-based, human; settings: HLA-A*24 peptides
Method: CD8+ T cells were primed using artificial APCs coated with anti-CD28 mAb and HLA-A*24 in complex with SEQ ID NO: 99 peptide (FIG. 5A, left panel), SEQ ID NO: 119 peptide (FIG. 5B, left panel), SEQ ID NO: 142 peptide (FIG. 5C, left panel) and SEQ ID NO: 174 peptide FIG. 5 (D, left panel), respectively. After three cycles of stimulation, the detection of peptide-reactive cells was performed by 2D multimer staining with A*24/SEQ ID NO: 99 (FIG. 5A), A*24/SEQ ID NO: 119 (FIG. 5B), A*24/SEQ ID NO: 142 (FIG. 5C) or A*24/SEQ ID NO: 174 (FIG. 5D). Right panels (FIGS. 5A,5B,5C and 5D) show control staining of cells stimulated with irrelevant A*24/peptide complexes. Viable singlet cells were gated for CD8+ lymphocytes. Boolean gates helped excluding false-positive events detected with multimers specific for different peptides. Frequencies of specific multimer+ cells among CD8+ lymphocytes are indicated.
Generation of pMHC/anti-CD28 coated beads, T-cell stimulations and readout was performed in a highly defined in vitro system using four different pMHC molecules per stimulation condition and 8 different pMHC molecules per readout condition.
The purified co-stimulatory mouse IgG2a anti human CD28 Ab 9.3 (Jung et al., 1987) was chemically biotinylated using Sulfo-N-hydroxysuccinimidobiotin as recommended by the manufacturer (Perbio, Bonn, Germany). Beads used were 5.6 μm diameter streptavidin coated polystyrene particles (Bangs Laboratories, Illinois, USA).
800.000 beads/200 μl were coated in 96-well plates in the presence of 4×12.5 ng different biotin-pMHC, washed and 600 ng biotin anti-CD28 were added subsequently in a volume of 200 μl. Stimulations were initiated in 96-well plates by co-incubating 1×10^6 CD8+ T cells with 2×10^5 washed coated beads in 200 μl TCM supplemented with 5 ng/ml IL-12 (PromoCell) for 3 days at 37° C. Half of the medium was then exchanged by fresh TCM supplemented with 80 U/ml IL-2 and incubating was continued for 4 days at 37° C. This stimulation cycle was performed for a total of three times. For the pMHC multimer readout using 8 different pMHC molecules per condition, a two-dimensional combinatorial coding approach was used as previously described (Andersen et al., 2012) with minor modifications encompassing coupling to 5 different fluorochromes. Finally, multimeric analyses were performed by staining the cells with Live/dead near IR dye (Invitrogen, Karlsruhe, Germany), CD8-FITC antibody clone SK1 (BD, Heidelberg, Germany) and fluorescent pMHC multimers. For analysis, a BD LSRII SORP cytometer equipped with appropriate lasers and filters was used. Peptide specific cells were calculated as percentage of total CD8+ cells. Evaluation of multimeric analysis was done using the FlowJo software (Tree Star, Oregon, USA). In vitro priming of specific multimer+CD8+ lymphocytes was detected by comparing to negative control stimulations.

Peptide exchange (MHC class I binding score, peptide exchange yield) (HLA-A*24) | Substance | in vitro immunogenicity, Wells positive [%] (CD8+ T cells)
+++ (50%-75% = +++) | 106 (IYNETVRDLL; listed as Homo sapiens) [compound 106] | + (<20% = +)
++++ (>=75% = ++++) | 99 (QYILAVPVL; listed as Homo sapiens) [compound 99] | +++ (50%-69% = +++)
+++ (50%-75% = +++) | 157 (DYIPASGFALF; listed as Homo sapiens) [compound 157] | + (<20% = +)
++++ (>=75% = ++++) | 166 (FYTLPFHLI; listed as Homo sapiens) [compound 166] | ++++ (>=70% = ++++)
++++ (>=75% = ++++) | 170 (QYPFHVPLL; listed as Homo sapiens) [compound 170] | +++ (50%-69% = +++)
+++ (50%-75% = +++) | 167 (RYGFYYVEF; listed as Homo sapiens) [compound 167] | ++++ (>=70% = ++++)
+++ (50%-75% = +++) | 345 (EYNSDLHQFF; listed as Homo sapiens) [compound 345] | ++ (20%-49% = ++)
+++ (50%-75% = +++) | 358 (YYSEVPVKL; listed as Homo sapiens) [compound 358] | ++++ (>=70% = ++++)
+++ (50%-75% = +++) | 181 (VYPPYLNYL; listed as Homo sapiens) [compound 181] | ++++ (>=70% = ++++)
++++ (>=75% = ++++) | 155 (IYKWITDNF; listed as Homo sapiens) [compound 155] | ++ (20%-49% = ++)
++++ (>=75% = ++++) | 182 (AYAQLGYLLF; listed as Homo sapiens) [compound 182] | +++ (50%-69% = +++)
+++ (50%-75% = +++) | 168 (RYLEAALRL; listed as Homo sapiens) [compound 168] | +++ (50%-69% = +++)
+++ (50%-75% = +++) | 102 (VYPFENFEF; listed as Homo sapiens) [compound 102] | +++ (50%-69% = +++)
+++ (50%-75% = +++) | 344 (EYNSDLHQF; listed as Homo sapiens) [compound 344] | + (<20% = +)
+++ (50%-75% = +++) | 179 (TYIPVGLGRLL; listed as Homo sapiens) [compound 179] | +++ (50%-69% = +++)
+++ (50%-75% = +++) | 158 (IYEETRGVLKVF; listed as Homo sapiens) [compound 158] | + (<20% = +)
++ (20%-49% = ++) | 363 (SYAELGTTI; listed as Homo sapiens) [compound 363] | + (<20% = +)
++++ (>=75% = ++++) | 380 (VYTGIDHHW; listed as Homo sapiens) [compound 380] | + (<20% = +)
++++ (>=75% = ++++) | 109 (LFITGGQFF; listed as Homo sapiens) [compound 109] | ++ (20%-49% = ++)
+++ (50%-75% = +++) | 175 (LYSPVPFTL; listed as Homo sapiens) [compound 175] | + (<20% = +)

Peptide exchange (MHC class I binding score, peptide exchange yield) (HLA-A*24) | Substance | in vitro immunogenicity, Wells positive [%] (CD8+ T cells)
+++ (50%-75% = +++) | 112 (IYNFVESKL; listed as Homo sapiens) [compound 112] | +++ (50%-69% = +++)
+++ (50%-75% = +++) | 98 (VFPRLHNVLF; listed as Homo sapiens) [compound 98] | + (<20% = +)
++++ (>=75% = ++++) | 156 (YYMELTKLLL; listed as Homo sapiens) [compound 156] | + (<20% = +)
++++ (>=75% = ++++) | 120 (GYIEHFSLW; listed as Homo sapiens) [compound 120] | ++ (20%-49% = ++)
+++ (50%-75% = +++) | 115 (RYLNKSFVL; listed as Homo sapiens) [compound 115] | + (<20% = +)
+++ (50%-75% = +++) | 119 (VYRVYVTTF; listed as Homo sapiens) [compound 119] | +++ (50%-69% = +++)
+++ (50%-75% = +++) | 349 (QYSIISNVF; listed as Homo sapiens) [compound 349] | ++ (20%-49% = ++)
++ (20%-49% = ++) | 162 (KYTSYILAF; listed as Homo sapiens) [compound 162] | + (<20% = +)
++++ (>=75% = ++++) | 132 (RYPALFPVL; listed as Homo sapiens) [compound 132] | + (<20% = +)
++++ (>=75% = ++++) | 172 (VFIFKGNEF; listed as Homo sapiens) [compound 172] | + (<20% = +)
++++ (>=75% = ++++) | 365 (VFIDHPVHL; listed as Homo sapiens) [compound 365] | + (<20% = +)
+++ (50%-75% = +++) | 107 (KYFPYLVVI; listed as Homo sapiens) [compound 107] | ++ (20%-49% = ++)
+++ (50%-75% = +++) | 171 (NYEDHFPLL; listed as Homo sapiens) [compound 171] | ++ (20%-49% = ++)
++++ (>=75% = ++++) | 144 (VFASLPGFLF; listed as Homo sapiens) [compound 144] | ++ (20%-49% = ++)
+++ (50%-75% = +++) | 103 (NYIPVKNGKQF; listed as Homo sapiens) [compound 103] | + (<20% = +)
+++ (50%-75% = +++) | 366 (QYLELAHSL; listed as Homo sapiens) [compound 366] | ++ (20%-49% = ++)
++++ (>=75% = ++++) | 186 (VFTTSSNIF; listed as Homo sapiens) [compound 186] | + (<20% = +)
+++ (50%-75% = +++) | 180 (KYLQVVGMF; listed as Homo sapiens) [compound 180] | + (<20% = +)
+++ (50%-75% = +++) | 353 (TYGKIDLGF; listed as Homo sapiens) [compound 353] | + (<20% = +)
